ChEMBL document CHEMBL1687748 (Antimicrob Agents Chemother, 2009)

Key:
Assay type in all cases: functional
Bacillus anthracis [1] = assay: Total spore counts of toxin and capsule gene-deficient Bacillus anthracis Sterne in hollow-fiber pharmacodynamic infection model at 50 mg, qd by Bayesian method
Bacillus anthracis [2] = assay: Growth rate constant of vegetative-phase cells going to spore phase in toxin and capsule gene-deficient Bacillus anthracis Sterne in hollow-fiber pharmacodynamic infection model at 250 mg administered as continuous infusion by Bayesian method
Bacillus anthracis [3] = assay: Hill constant for compound-sensitive toxin and capsule gene-deficient Bacillus anthracis Sterne in hollow-fiber pharmacodynamic infection model at 250 mg administered as continuous infusion by Bayesian method
Bacillus anthracis [4] = assay: Kill rate constant for compound-sensitive toxin and capsule gene-deficient Bacillus anthracis Sterne in hollow-fiber pharmacodynamic infection model at 150 mg, qd by Bayesian method
Bacillus anthracis [5] = assay: Growth rate constant of vegetative-phase cells going to spore phase in toxin and capsule gene-deficient Bacillus anthracis Sterne in hollow-fiber pharmacodynamic infection model administered for every 24 hrs
Bacillus anthracis [6] = assay: Total spore counts of toxin and capsule gene-deficient Bacillus anthracis Sterne in hollow-fiber pharmacodynamic infection model administered as continuous infusion
Bacillus anthracis [7] = assay: Hill constant for compound-sensitive toxin and capsule gene-deficient Bacillus anthracis Sterne in hollow-fiber pharmacodynamic infection model at 50 mg, qd by Bayesian method
Bacillus anthracis [8] = assay: Growth rate constant of vegetative-phase cells going to spore phase in toxin and capsule gene-deficient Bacillus anthracis Sterne in hollow-fiber pharmacodynamic infection model at 200 mg, qd by Bayesian method
Bacillus anthracis [9] = assay: Total sensitive organism counts of toxin and capsule gene-deficient Bacillus anthracis Sterne in hollow-fiber pharmacodynamic infection model at 150 mg administered as continuous infusion by Bayesian method
Bacillus anthracis [10] = assay: Hill constant for compound-sensitive toxin and capsule gene-deficient Bacillus anthracis Sterne in hollow-fiber pharmacodynamic infection model at 100 mg, qd by Bayesian method
Bacillus anthracis [11] = assay: Hill constant for compound-sensitive toxin and capsule gene-deficient Bacillus anthracis Sterne in hollow-fiber pharmacodynamic infection model at 200 mg, qd by Bayesian method
Bacillus anthracis [12] = assay: Growth rate constant for compound-sensitive toxin and capsule gene-deficient Bacillus anthracis Sterne in hollow-fiber pharmacodynamic infection model at 200 mg, qd by Bayesian method
Bacillus anthracis [13] = assay: Kill rate constant for compound-sensitive toxin and capsule gene-deficient Bacillus anthracis Sterne in hollow-fiber pharmacodynamic infection model at 250 mg, qd by Bayesian method
Bacillus anthracis [14] = assay: Growth rate constant of spore-phase cells going to vegetative phase in toxin and capsule gene-deficient Bacillus anthracis Sterne in hollow-fiber pharmacodynamic infection model at 250 mg, qd by Bayesian method
Bacillus anthracis [15] = assay: Growth rate constant for compound-sensitive toxin and capsule gene-deficient Bacillus anthracis Sterne in hollow-fiber pharmacodynamic infection model at 50 mg, qd by Bayesian method
Bacillus anthracis [16] = assay: Kill rate constant for compound-sensitive toxin and capsule gene-deficient Bacillus anthracis Sterne in hollow-fiber pharmacodynamic infection model at 200 mg, qd by Bayesian method
Bacillus anthracis [17] = assay: Total spore counts of toxin and capsule gene-deficient Bacillus anthracis Sterne in hollow-fiber pharmacodynamic infection model at 250 mg administered as continuous infusion by Bayesian method
Bacillus anthracis [18] = assay: Total spore counts of toxin and capsule gene-deficient Bacillus anthracis Sterne in hollow-fiber pharmacodynamic infection model at 100 mg administered as continuous infusion by Bayesian method
Bacillus anthracis [19] = assay: Total sensitive organism counts of toxin and capsule gene-deficient Bacillus anthracis Sterne in hollow-fiber pharmacodynamic infection model at 100 mg, qd by Bayesian method
Bacillus anthracis [20] = assay: Total sensitive organism counts of toxin and capsule gene-deficient Bacillus anthracis Sterne in hollow-fiber pharmacodynamic infection model at 250 mg, qd by Bayesian method
Bacillus anthracis [21] = assay: Total sensitive organism counts of toxin and capsule gene-deficient Bacillus anthracis Sterne in hollow-fiber pharmacodynamic infection model at 100 mg administered as continuous infusion by Bayesian method
Bacillus anthracis [22] = assay: Kill rate constant for compound-sensitive toxin and capsule gene-deficient Bacillus anthracis Sterne in hollow-fiber pharmacodynamic infection model at 250 mg administered as continuous infusion by Bayesian method
Bacillus anthracis [23] = assay: Kill rate constant for compound-sensitive toxin and capsule gene-deficient Bacillus anthracis Sterne in hollow-fiber pharmacodynamic infection model at 100 mg, qd by Bayesian method
Bacillus anthracis [24] = assay: Total sensitive organism counts of toxin and capsule gene-deficient Bacillus anthracis Sterne in hollow-fiber pharmacodynamic infection model at 50 mg, qd by Bayesian method
Bacillus anthracis [25] = assay: Hill constant for compound-sensitive toxin and capsule gene-deficient Bacillus anthracis Sterne in hollow-fiber pharmacodynamic infection model at 200 mg administered as continuous infusion by Bayesian method
Bacillus anthracis [26] = assay: Growth rate constant of spore-phase cells going to vegetative phase in toxin and capsule gene-deficient Bacillus anthracis Sterne in hollow-fiber pharmacodynamic infection model at 50 mg, qd by Bayesian method
Bacillus anthracis [27] = assay: Growth rate constant of vegetative-phase cells going to spore phase in toxin and capsule gene-deficient Bacillus anthracis Sterne in hollow-fiber pharmacodynamic infection model at 100 mg, qd by Bayesian method
Bacillus anthracis [28] = assay: Hill constant for compound-sensitive toxin and capsule gene-deficient Bacillus anthracis Sterne in hollow-fiber pharmacodynamic infection model administered for every 24 hrs
Bacillus anthracis [29] = assay: Total sensitive organism counts of toxin and capsule gene-deficient Bacillus anthracis Sterne in hollow-fiber pharmacodynamic infection model at 200 mg administered as continuous infusion by Bayesian method
Bacillus anthracis [30] = assay: Growth rate constant for compound-sensitive toxin and capsule gene-deficient Bacillus anthracis Sterne in hollow-fiber pharmacodynamic infection model at 150 mg administered as continuous infusion by Bayesian method
Bacillus anthracis [31] = assay: Total spore counts of toxin and capsule gene-deficient Bacillus anthracis Sterne in hollow-fiber pharmacodynamic infection model at 150 mg administered as continuous infusion by Bayesian method
Bacillus anthracis [32] = assay: Growth rate constant of vegetative-phase cells going to spore phase in toxin and capsule gene-deficient Bacillus anthracis Sterne in hollow-fiber pharmacodynamic infection model at 150 mg, qd by Bayesian method
Bacillus anthracis [33] = assay: Total spore counts of toxin and capsule gene-deficient Bacillus anthracis Sterne in hollow-fiber pharmacodynamic infection model at 200 mg, qd by Bayesian method
Bacillus anthracis [34] = assay: Hill constant for compound-sensitive toxin and capsule gene-deficient Bacillus anthracis Sterne in hollow-fiber pharmacodynamic infection model at 250 mg, qd by Bayesian method
Bacillus anthracis [35] = assay: Hill constant for compound-sensitive toxin and capsule gene-deficient Bacillus anthracis Sterne in hollow-fiber pharmacodynamic infection model at 100 mg administered as continuous infusion by Bayesian method
Bacillus anthracis [36] = assay: Total sensitive organism counts of toxin and capsule gene-deficient Bacillus anthracis Sterne in hollow-fiber pharmacodynamic infection model at 250 mg administered as continuous infusion by Bayesian method
Bacillus anthracis [37] = assay: Kill rate constant for compound-sensitive toxin and capsule gene-deficient Bacillus anthracis Sterne in hollow-fiber pharmacodynamic infection model administered as continuous infusion

Question: Which results are given for `COc1c(N2C[C@@H]3CCCN[C@@H]3C2)c(F)cc2c(=O)c(C(=O)O)cn(C3CC3)c12` [MOXIFLOXACIN]?
Answer: CFU/ml (Bacillus anthracis [1]): 1860000; Activity (Bacillus anthracis [2]): 5.18 h⁻¹; Activity (Bacillus anthracis [3]): 30 h⁻¹; Activity (Bacillus anthracis [4]): 6.58 h⁻¹; Activity (Bacillus anthracis [5]): 4.96 h⁻¹; CFU/ml (Bacillus anthracis [6]): 1880000; Activity (Bacillus anthracis [7]): 5.84 h⁻¹; Activity (Bacillus anthracis [8]): 2.09 h⁻¹; CFU/ml (Bacillus anthracis [9]): 23500000; Activity (Bacillus anthracis [10]): 30 h⁻¹; Activity (Bacillus anthracis [11]): 1 h⁻¹; Activity (Bacillus anthracis [12]): 1.81 h⁻¹; Activity (Bacillus anthracis [13]): 4.48 h⁻¹; Activity (Bacillus anthracis [14]): 1.04 h⁻¹; Activity (Bacillus anthracis [15]): 5.14 h⁻¹; Activity (Bacillus anthracis [16]): 4.29 h⁻¹; CFU/ml (Bacillus anthracis [17]): 1860000; CFU/ml (Bacillus anthracis [18]): 1860000; CFU/ml (Bacillus anthracis [19]): 28000000; CFU/ml (Bacillus anthracis [20]): 36000000; CFU/ml (Bacillus anthracis [21]): 20600000; Activity (Bacillus anthracis [22]): 8.28 h⁻¹; Activity (Bacillus anthracis [23]): 7.48 h⁻¹; CFU/ml (Bacillus anthracis [24]): 19600000; Activity (Bacillus anthracis [25]): 30 h⁻¹; Activity (Bacillus anthracis [26]): 2.91 h⁻¹; Activity (Bacillus anthracis [27]): 1.38 h⁻¹; Activity (Bacillus anthracis [28]): 29.8 h⁻¹; CFU/ml (Bacillus anthracis [29]): 20600000; Activity (Bacillus anthracis [30]): 8.25 h⁻¹; CFU/ml (Bacillus anthracis [31]): 1880000; Activity (Bacillus anthracis [32]): 0.0657 h⁻¹; CFU/ml (Bacillus anthracis [33]): 2420000; Activity (Bacillus anthracis [34]): 1 h⁻¹; Activity (Bacillus anthracis [35]): 20.9 h⁻¹; CFU/ml (Bacillus anthracis [36]): 21600000; Activity (Bacillus anthracis [37]): 6.41 h⁻¹
